In patent US11000708B2 (priority 2015, dated 2021):
Values joined by “and” are separate entries in the source; they are usually repeats but may differ in a detail not shown here. Equal entries are not always repeated. Where two headings read alike, the source gives them in different places.

Experiments:
[1] = system: 518 clinically-separated Mycobacterium tuberculosis strains; settings: cited from earlier work
[2] = system: clinically-separated Mycobacterium tuberculosis strains; type: cell-based
[3] = 518 clinically-separated strains
[4] = among 321 strains resistant to one or more first-line drugs

## capreomycin
[1]; [3]
  resistance rate of Mycobacterium tuberculosis: 21.81%
[1]; [4]
  resistance rate of Mycobacterium tuberculosis: 33.02%

## carrimycin
[2]; 1 μg/ml
  number of strains sensitive to 1 μg/ml of carrimycin: 54 strains
  share of total effective bacteria sensitive to 1 μg/ml of carrimycin: 31.39%
[2]; 20 μg/ml carrimycin vs 1 μg/ml isoniazid and 250 μg/ml rifampicin
  number of strains with activity superior to that of isoniazid and that of rifampicin: 23 strains
[2]; 20 μg/ml carrimycin, isoniazid-resistant clinical strains
  number of strains with activity superior to that of isoniazid: 37 strains
[2]; 20 μg/ml carrimycin, rifampicin-resistant clinical strains
  number of strains with activity superior to that of rifampicin: 39 strains
[2]; 172 of 240 clinically-separated strains
  total effective rate: 71.66%
[2]; of 172 effective strains
  share of effective strains with activity superior to isoniazid: 21.5%
  share of effective strains with activity superior to isoniazid and rifampicin: 13.4%
  share of effective strains with activity superior to rifampicin: 22.7%
  share of effective strains with sensitivity equivalent to H37Rv: 53.48%
[2]; of 172 sensitive strains
  number of strains with sensitivity equivalent to that of quality control strains H37Rv: 92 strains
  number of strains with sensitivity obviously higher than that of quality control strains H37Rv: 80 strains
[2]; of 240 clinically-separated strains, 1 μg/ml or 20 μg/ml
  number of strains sensitive to carrimycin: 172 strains

## CO[C@H]1/C=C/O[C@@]2(C)Oc3c(C)c(O)c4c(O)c(c(/C=N/N5CCN(C)CC5)c(O)c4c3C2=O)NC(=O)/C(C)=C\C=C\[C@H](C)[C@H](O)[C@@H](C)[C@@H](O)[C@@H](C)[C@H](OC(C)=O)[C@@H]1C [Rifampicin, rifampicin]
[2]; rifampicin 50 μg/ml, Table 5, per clinical strain
  growth of bacterial colonies on drug-containing culture medium: 4+ (positive (4+) if the bacterial colonies closely grow on the slant face of the culture medium and account for ¾ or more of the area of the slant face) and 3+ (positive (3+) if the bacterial colonies closely grow on the slant face of the culture medium or are partially fused and account for ½ or more of the slant face and ¾ or less of the slant face) and 2+ (positive (2+) if the bacterial colonies dispersedly grow on the slant face of the culture medium and account for ¼ or more of the slant face and ½ or less of the slant face)
[2]; rifampicin 50 μg/ml, Table 6, isoniazid- and rifampicin-resistant clinical strains
  growth of bacterial colonies on drug-containing culture medium: 4+ (positive (4+) if the bacterial colonies closely grow on the slant face of the culture medium and account for ¾ or more of the area of the slant face) and 3+ (positive (3+) if the bacterial colonies closely grow on the slant face of the culture medium or are partially fused and account for ½ or more of the slant face and ¾ or less of the slant face) and 2+ (positive (2+) if the bacterial colonies dispersedly grow on the slant face of the culture medium and account for ¼ or more of the slant face and ½ or less of the slant face)

## NCC[C@H](O)C(=O)N[C@@H]1C[C@H](N)[C@@H](O[C@H]2O[C@H](CN)[C@@H](O)[C@H](O)[C@H]2O)[C@H](O)[C@H]1O[C@H]1O[C@H](CO)[C@@H](O)[C@H](N)[C@H]1O [amikacin]
[1]; [3]
  resistance rate of Mycobacterium tuberculosis: 15.83%
[1]; [4]
  resistance rate of Mycobacterium tuberculosis: 25.55%

## [H]/N=C(/N)N[C@H]1[C@H](O)[C@@H](O)[C@H](O[C@@H]2O[C@@H](C)[C@](O)(C=O)[C@H]2O[C@@H]2O[C@@H](CO)[C@H](O)[C@@H](O)[C@@H]2NC)[C@@H](N/C(N)=N\[H])[C@@H]1O [streptomycin]
[1]; [3]
  resistance rate of Mycobacterium tuberculosis: 45.95%

## NNC(=O)c1ccncc1 [Isoniazid, isoniazid]
[2]; isoniazid 0.2 μg/ml, Table 4, per clinical strain
  growth of bacterial colonies on drug-containing culture medium: 4+ (positive (4+) if the bacterial colonies closely grow on the slant face of the culture medium and account for ¾ or more of the area of the slant face) and 3+ (positive (3+) if the bacterial colonies closely grow on the slant face of the culture medium or are partially fused and account for ½ or more of the slant face and ¾ or less of the slant face)
[1]; [3]
  resistance rate of Mycobacterium tuberculosis: 53.67%
